Source: PubChem BioAssay (NCI)
“And” between values parts separate entries of the source, which are not always exact repeats. Equal entries are not always repeated.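 Growth conditions: 96-well plates. Treatment: test compound, 48 hours, 5 concentrations. Analysis: linear interpolation between bracketing concentrations; unreached endpoints set to highest concentration. GI50 marks 50% less growth. TGI denotes the concentration required for complete inhibition of growth.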

Tested on: MDA-MB-468 breast
Assay: NCI-60 cell line screen, 48 h

SMILES | GI50 | TGI
COc1ccccc1N1CCN(CCc2c[nH]c3cc4c(cc23)OCO4)CC1 | 15.8 µM | 44.5 µM
COC(=O)C1CCCN1C(=O)[C@@H]1CCCN1C(=O)[C@H](Cc1c[nH]c2ccccc12)NC(=S)Nc1cc(C(F)(F)F)cc(C(F)(F)F)c1 (stereo partly specified) | 1.78 µM | 4.64 µM
COc1cccc(OCCCN)c1-c1cc(Nc2cnc(C#N)cn2)n[nH]1 | 0.0407 µM | 2.04 µM
Nc1nc2n[nH]nc2c(=O)[nH]1 | 0.0817 µM | 0.792 µM
CC(=O)c1cccc(Nc2nc3ccc(Cl)cc3c3[nH]c4ccccc4c23)c1 | 2.84 µM | 96.8 µM
COc1cccc2c1C(=O)c1c(O)c3c(c(O)c1C2=O)C[C@@](O)(C(=O)CO)C[C@@H]3O[C@H]1C[C@H](N)[C@@H](O)[C@H](C)O1 | 0.094 µM | 0.304 µM
N#CC1=C(N)Oc2c(sc3c(Br)cccc23)C1c1ccc(Br)cc1 (stereo unspecified) | 0.763 µM | 11.4 µM
OC(CNCC1CCCO1)Cn1c2ccc(Cl)cc2c2cc(Cl)ccc21 (stereo unspecified) | 1.65 µM | 3.2 µM
COc1ccc(NC(=O)COCCOCCNC[C@@H]2C(=O)O[C@H]3[C@H]2CC/C(COC(=O)OC/C2=C/CC[C@@]4(C)O[C@H]4[C@H]4OC(=O)[C@@H](CN(C)C)[C@@H]4CC2)=C\CC[C@@]2(C)O[C@@H]32)c(O)c1C(N)=O | 3.04 µM | 10.8 µM
C=C1C(=O)O[C@H]2[C@H]1CCC(/C=N/c1ncc(Br)cc1N)=C\CC[C@@]1(C)O[C@@H]21 | 1.2 µM | 3.91 µM
COc1cc(NC(=O)CSc2nc3ccc(C)cc3c(=O)n2Cc2ccccc2)cc(OC)c1OC | 4.11 µM | 68.1 µM
COc1cc2c(cc1OCCCCCOc1ccc(-n3c(C)nc4ccccc4c3=O)cc1)N=C[C@@H]1CCCN1C2=O | 0.168 µM | 0.462 µM
CC(C)COCC(CN(Cc1ccccc1)c1ccccc1)N1CCCC1 (stereo unspecified) | 1.82 µM | 6.56 µM
COc1cc(/C=N/NC(=O)c2cnn3c2NC(c2ccccc2)C3)ccc1Oc1ccccc1 (stereo unspecified) | 0.648 µM | 5.72 µM
COC(=O)CCC1CCC(c2cc(F)ccc2F)(S(=O)(=O)c2ccc(Cl)cc2)CC1 (stereo unspecified) | 16.3 µM | > 100 µM
CCN1Cc2c(ccc(F)c2C#N)O[C@@H](C)CNC(=O)c2c(N)nn3ccc1nc23 | 12.5 µM | 34.3 µM
CC1(O)CC(c2nc(-c3ccc4ccc(-c5ccccc5)nc4c3)c3c(N)nccn23)C1 (stereo unspecified) | 3.02 µM and 2.9 µM | 12.8 µM and > 10 µM

SMILES | GI50 | TGI
N#Cc1c(-c2cccs2)cc(-c2cnccn2)nc1SCC(=O)N/N=C/c1ccccc1 | 3.9 µM | 13.9 µM
COc1cc(Cl)cc(-c2nn(-c3cccc(NC(=O)Nc4cc(C(F)(F)F)cc(C(F)(F)F)c4)c3)cc2-c2ccncc2)c1 | 0.349 µM | 3.15 µM
Oc1ccccc1CNCC12CC3CC(CC(C3)C1)C2 | 12.8 µM | 31.7 µM
CCCCCCCCCCC(C(O)c1ccccc1)N1CCCCC1 (stereo unspecified) | 1.58 µM | 3.09 µM
COc1cc(/C=C/C(=O)c2c(C)nc3ccccc3c2/C=C/c2ccc(C)cc2)cc(OC)c1OC | 1.88 µM | 4.26 µM
CC(=C(c1ccc(OCCN2CCCC2)cc1)c1ccc(OCCN2CCCC2)cc1)c1ccc(Cl)cc1 | 2.37 µM | 5.01 µM
Cc1cc(NCc2cc(Nc3ccnc4cc(Cl)ccc34)ccc2F)nc(N2CCN(C)CC2)n1 | 1.7 µM | 3.52 µM
COc1ccc(/C(=N\O)c2cc(C)c(OC)c(C)c2)cc1O | 0.0146 µM | > 100 µM
O=C(Nc1ccc2[nH]c(=S)sc2c1)Nc1ccccc1F | 17.7 µM | > 100 µM
CCN1C(=O)N(c2ccccc2)C2NC(=S)N(/N=C/C=C/c3ccccc3)C21 (stereo unspecified) | 0.347 µM | > 100 µM
COc1ccc(/C=C(\C#N)n2nnc3ccccc32)cc1 | 0.272 µM | 4.1 µM
O=C(c1ccccc1)C(Br)C(Br)c1cccc([N+](=O)[O-])c1 (stereo unspecified) | 1.47 µM | 3.08 µM
O=C1C=CC[C@H](/C=C/c2ccccc2)O1 | 1.94 µM | 11.5 µM
COc1ccc(S(=O)(=O)Nc2cc(/C=C\c3cc(OC)c(OC)c(OC)c3)ccc2OC)cc1 | 0.168 µM | > 100 µM
CCC[CH2][Sn]([CH2]CCC)([CH2]CCC)[O]C(=O)c1ccc(Cl)cc1Cl | 0.133 µM | 0.274 µM
Nc1nc(N)c2c(n1)NC(c1ccc(F)cc1)C1CCc3ccccc3C1=N2 (stereo unspecified) | 1.43 µM | 6.7 µM
